The subject of one experiment is 24-HC in the brain. The experiment can be described thus: Quantification test of 24-HC in mouse brain after repeated oral administration. Type of experiment: in vivo. The conditions noted are these: brain 24-HC; female C57BL/6N mice; 10 mg/kg orally once a day for 3 days; 16 hours after the third administration; relative to control group as 100%. Here is the method: Animals used were 6-week-old female C57BL/6N mice (3 mice/group). A test compound was suspended in a 0.5% aqueous methylcellulose [133-14255 WAKO] solution (1 mg/mL). The body weight of the mice was measured, and the solution was forcibly administered orally and repeatedly once a day for 3 days. At 16 hours after the third administration, half of the brain was recovered, and the amount of 24-HC was measured.
The wet weight of the brain was measured, and the brain was homogenized with about 4-fold amount (0.5 mL) of saline. This solution was used as a brain extract. 24-HC in the brain extract was extracted with an acetonitrile solution (98% acetonitrile, 1.98% methanol, 0.02% formic acid), and quantified by HPLC. The average value of 24-HC amount was calculated and the results are shown in relative values with the control group as 100%.

In experiment [1] the test system is APP/PS1 double transgenic mouse. Nature of the experiment: Y-maze test using APP/PS1 double transgenic mouse. In kind it is in vivo. The settings on record: 16 hours after the 13th administration. As to the method: Animals used were 3-month-old female APP/PS1 double transgenic mice (10-15 mice/group). A test compound was suspended in a 0.5% aqueous methylcellulose [133-14255 WAKO] solution (1 mg/mL). The body weight of the mice was measured, and the solution was forcibly administered orally and repeatedly once a day for 14 days. At 16 hours after the 13th administration, spontaneous alternation behavior in Y-maze test was evaluated. Using a particular arm of a Y-shaped test apparatus as the starting point, the frequency of moving to a different arm was counted for 5 min. The first two times of entry were excluded from the total number of entry. In addition, the mice that entered less than 10 times in total were excluded. Movement to an arm different from the arm into which the mouse entered last but one was considered an alternation behavior, and the ratio to the total number of moving was calculated as a spontaneous alternation behavior rate. As comparison subjects, a control group (test compound-non treatment group) and a control group in wild-type mice were used.

Regarding `O=C(c1ccccc1-c1ccncn1)N1CCC(O)(Cc2ccccc2)CC1` [Example 14, (4-benzyl-4-hydroxypiperidin-1-yl) (2-(pyrimidin-4-yl)phenyl)methanone], the “decrease rate (%) at 10 mg/kg” value in the experiment with 24-HC in the brain is given as 67%. With `O=C(c1cccnc1-c1ccncc1)N1CCC(O)(Cc2ccccc2)CC1` [Example 44, (4-benzyl-4-hydroxypiperidin-1-yl) (2,4′-bipyridin-3-yl)methanone], the “Spontaneous alternation behavior rate (%)” value in experiment [1] (10 mg/kg orally once a day) and in experiment [1] (30 mg/kg orally once a day) was 71% in each case.

As for `N#Cc1ccc(CC2(O)CCN(C(=O)c3cccnc3-c3ccncc3)CC2)cc1` [Example 70, 4-((1-(2,4′-bipyridin-3-ylcarbonyl)-4-hydroxypiperidin-4-yl)methyl)benzonitrile], in the experiment with 24-HC in the brain, the “decrease rate (%) at 10 mg/kg” value is given as 60%. In the case of `O=C(c1cccnc1-c1ccncn1)N1CCC(O)(Cc2ccc(F)cc2)CC1` [Example 92, (4-(4-fluorobenzyl)-4-hydroxypiperidin-1-yl) (2-(pyrimidin-4-yl)pyridin-3-yl)methanone], in the experiment with 24-HC in the brain, the “decrease rate (%) at 10 mg/kg” value is on record as 60%. Still for that read-out and setting: in the case of `O=C(c1ccc(F)cc1-c1ccncc1)N1CCC(O)(Cc2ccccn2)CC1` [Example 30, (4-fluoro-2-(pyridin-4-yl)phenyl) (4-hydroxy-4-(pyridin-2-ylmethyl)piperidin-1-yl)methanone] it was 87%; in that of `O=C(c1cccnc1-c1ccncn1)N1CCC(O)(Cc2ccccc2)CC1` [Example 54, (4-benzyl-4-hydroxypiperidin-1-yl) (2-(pyrimidin-4-yl)pyridin-3-yl)methanone], 64%; in that of `O=C(c1cccnc1-c1ccncc1)N1CCC(O)(Cc2ccc(F)cc2F)CC1` [Example 87, 2,4′-bipyridin-3-yl (4-(2,4-difluorobenzyl)-4-hydroxypiperidin-1-yl)methanone], 37%. On to `O=C(c1cccnc1-c1ccncc1)N1CCC(O)(Cc2ccc(F)cc2)CC1` [Example 67, 2,4′-bipyridin-3-yl (4-(4-fluorobenzyl)-4-hydroxypiperidin-1-yl)methanone], for which the “decrease rate (%) at 10 mg/kg” value in the experiment on 24-HC in the brain worked out at 43%. With `O=C(c1cccnc1-c1ccncn1)N1CCC(O)(Cc2ccc(F)cc2F)CC1` [Example 105, (4-(2,4-difluorobenzyl)-4-hydroxypiperidin-1-yl) (2-(pyrimidin-4-yl)pyridin-3-yl)methanone], in the experiment on 24-HC in the brain, the “decrease rate (%) at 10 mg/kg” value stood at 40%. On to `Cc1nc(-c2ccncn2)c(C(=O)N2CCC(O)(Cc3ccc(F)cc3)CC2)s1` [Example 62, (4-(4-fluorobenzyl)-4-hydroxypiperidin-1-yl) (2-methyl-4-(pyrimidin-4-yl)-1,3-thiazol-5-yl)methanone], for which, in the experiment on 24-HC in the brain, the “decrease rate (%) at 10 mg/kg” value came to 71%.

Source of the values: patent publication US9440990B2, “1-arylcarbonyl-4-oxy-piperidine compounds useful for the treatment of neurodegenerative diseases” (TAKEDA PHARMACEUTICAL COMPANY LIMITED, priority 2011, dated 2016).
